Laboratory results: US20240366555A1, “SELECTIVE MTORC2 INHIBITOR AND USES THEREOF” (ALIAD BIOPHARMA, priority 2021, published 2024)

Experiments:
Pten KO mice = assay: Y-type maze test in Pten KO mice; assay type: in vivo; conditions: 5 or 10 mg/kg intraperitoneally for 14 days, FIG. 1a
Method: As Pten KO mice, Ptenf/f_cre/cre KO mice or Ptenf/f_cre/++ Het mice (KD) were obtained by mating Pten floxed/floxed mice and CAMKII-cre mice. DMSO or athyriol was intraperitoneally injected at 5 or 10 mg/kg for 2 weeks from the age of mice of 6 weeks, and a behavioral test was performed in 7 days after administration. Pten floxed/floxed mice were used as littermates of the same age as a normal control group.
A Y-maze was performed in a Y-shaped structure maze made of black acrylic material in which an angle of each arm was 120°, and a light and a cam were installed on the ceiling, and it was checked that white mice entered each arm while the surroundings were covered with a curtain. Through this, short-term memory was analyzed. In order to adapt mice to the environment, they were acclimated to the experimental space for 30 minutes. The mice were placed at one end of the maze and allowed to move freely for 12 minutes. Accuracy was measured by dividing time into 8 minutes, 10 minutes and 12 minutes. When the four paws of the mice entered the entrance, it was considered as completely entered. The percentage of accuracy was calculated as the number of times which a mouse entered each maze without repetition. The number of times entering each of three different arms was divided by the total number of times entering arms-2 and converted into a percentage for datafication. […]

[1] = system: CYFIP1-overexpressing hippocampal neurons; assay: Excessive dendritic arborization in CYFIP1-overexpressing primary hippocampal neurons; assay type: cell-based, rat
Excerpt: Neural stem cells were primarily cultured from the hippocampal vestigial region of white mouse E16 embryos, and CYFIP1, which was found as a gene causing autism spectrum disorder, was introduced by transfection and overexpressed. When the neural stem cells in which CYFIP1 was overexpressed were differentiated, the neurite length and branch number increased compared to the normal cell, the number of dendritic spine increased, and morphological changes such as an increase in rod-shaped dendritic spines with a size of 0.6 μm or more, which are larger than the normal size, were accompanied. Therefore, CYFIP1 overexpression was used as a culture cell model of autism.
By treating norathyriol to the differentiating neural stem cells exogenously overexpressing CYFIP1, the effect of norathyriol on excessive dendritic arborization generated by CYFIP1 overexpression was investigated. By immunofluorescent staining method using an antibody against pan-neurofilament and an antibody against PSD (post-synaptic density)-95, which was expressed in the post-synaptic dendrite of synapses, the neurite length and dendritic spine number were measured and quantified. In addition, by DAPI staining, the nuclei of the neural cells were visualized.
Hippocampus-derived neural progenitor cells were isolated from the forebrain of E16 mouse embryos. SD-rat gestational age 16-day mice (Orient Bio) were purchased and the mice were anesthetized with CO2 deeply, and then the embryos were taken out. The embryos were immersed in Ca^2+/Mg^2+-free HBSS (Invitrogen) and the forebrain was isolated using a sterile injection needle under a dissecting microscope. While changing HBSS, the forebrain was separated into the left and right hemispheres using a forcep, and meninges were peeled off, and then the hippocampal eminence was separated. After washing the separated and collected tissue with cold N2 culture medium twice, 37° C. N2 culture medium was added and cells were slowly and mechanically isolated using a pipette. As the pipette, a Pasteur pipette coated with 1% BSA was used after making the pipette narrow and soft in diameter by firing the tip. After waiting for 3 minutes to allow undissolved tissue or vascular cells to settle, the supernatant was carefully taken as dissolved cells. These tissues were collected and mechanically isolated with the pipette in Ca^2+/Mg^2+-free HBSS (Invitrogen) buffer. The cells were seeded at 19,000 cells/cm^2 in a 35 mm culture dish coated with 15 μg/ml poly-L-ornithine and 1 μg/ml fibronectin (Sigma), and cultured using a serum-free N2 medium (medium for proliferation) in which 10 ng/mL bFGF (Invitrogen) was added under a condition of 5% CO2. […]

Compound: COc1cc(O)c2c(=O)c3cc(O)c(O)cc3oc2c1 [athyriol, 1,6,7-Trihydroxy-3-methoxy-9H-xanthen-9-on]
- short-term memory in Y-type maze test (Pten KO mice): recovered almost to the level of the normal control group

Compound: O=c1c2cc(O)c(O)cc2oc2cc(O)cc(O)c12 [norathyriol, 1,3,6,7-tetrahydroxy-9H-xanthen-9-one]
- reduction of number of dendritic spines per unit neurite length ([1]; 50 nM and 100 nM, on average, FIG. 10b): ≤ 50%
- number of dendritic spines in primary branching neurites ([1]; FIG. 10b): reduced by norathyriol in a similar tendency
- number of dendritic spines per cell ([1]; FIG. 10b): reduced by norathyriol in a similar tendency
- number of dendritic spines per unit neurite length ([1]; from 10 nM, FIG. 10): decrease in the number of dendritic spines was observed
